# US11965201B2, “Arginine supplementation to improve efficiency in gas fermenting acetogens” (LanzaTech NZ, Inc., priority 2015, dated 2024)
# How the values were obtained:
# Type in all cases: cell-based, Clostridium autoethanogenum
# [1] = tested on: C. autoethanogenum DSM10061; assay: Heterotrophic batch growth in YE-free PETC-MES media with amino acid formulations + fructose (OD600)
# Description: YE-free PETC-MES media was supplemented with various amino acid formulations—20AA, 7AA, 8AA, 14AA, 12AA, 4AA and Arginine (Table 2)—to identify if any amino acids are supporting growth. Solutions were filter sterilized and made anoxic by sparging N2.
# First, a 20AA medium was designed based on the biomass amino acid composition of Clostridium acetobutylicum (Lee et al. 2008) with final amino acid concentrations theoretically supporting production of 1 gDCW/L of biomass.
# Growth studies were carried out in batch cultivations in a volume of 50 mL media in 125 mL serum bottles with nitrogen in the headspace under shaking (unless otherwise noted) at 37° C. Optical density (OD) was measured at 600 nm with the reading ˜0.5 outside the anaerobic chamber against fully oxidized medium as reference.
# [2] = tested on: C. autoethanogenum DSM10061; assay: Continuous biomass monitoring with BugLab device in serum bottle; settings: before arginine depletion
# Procedure: As the initial fast growth was unexpected, only a couple of samples could be used for calculating tD. Thus, a BugLab biomass monitoring device was attached to a serum bottle on 4AA medium to continuously monitor the increase of biomass before arginine is depleted from the medium. This experiment confirmed the fast growth on 4AAs before arginine depletion as tD was calculated to be ˜2 h (FIG. 10).
# To obtain a more accurate value of tD on Arginine medium, a BugLab experiment was performed to continuously monitor the increase of biomass before arginine runs out. This experiment confirmed the fast growth before arginine runs out as tD was calculated to be ˜3 h (FIG. 14).
# [3] = tested on: C. autoethanogenum DSM 23693; assay: Autotrophic growth and acetate production on CO/CO2/H2 gas mix with arginine supplementation; settings: for decrease of doubling time by arginine supplementation: vs control without arginine
# Procedure: Growth was carried out in PETC-MES medium without yeast extract (Table 1) using standard anaerobic techniques (Hungate, Meth Microbiol, 3B: 117-132, 1969; Wolfe, Adv Microb Physiol, 6: 107-146, 1971) and 22 psi of CO/CO2/H2 gas mix (composition: 50% CO, 20% CO2, […], 28% N2) headspace pressure.
# To study effect of supplementation with arginine, 5 g/L of arginine was added to the media and culture growth and metabolite production during autotrophic growth was compared to the control without arginine.
# Growth was followed by measuring the optical density using a Thermo Genesys 20 spectrophotometer. […] Samples were prepared by diluting 400 μL with 100 μL of 5-sulfosalicylic acid solution (1% w/v in 1 M sulphuric acid), followed by a 3 minute centrifugation at 14,000 rpm; the supernatant was transferred to a glass vial for analysis. Separation was carried out with a 10 μL injection on to an Alltech IOA-2000 column (150 mm×6.5 mm×8 μm) at 0.7 mL/min and 65° C. under isocratic conditions, using 5 mM sulphuric acid mobile phase.
# The experiment was carried out in two biological repeats with triplicate cultures (n=3) for each condition in a volume of 40 mL media in 1 L Schott bottles at 37° C. with orbital shaking (120 rpm, shake orbit). In each case, acetogenic strain C. autoethanogenum DSM 23693 was pre-cultured in PETC-MES without yeast extract to an OD600 nm of 0.3 and a single preculture was used for inoculation.
# In the first experiment to the following conditions: PETC-MES without yeast extract+22 psi syngas (initial OD600 nm=0.005) and PETC-MES without yeast extract+22 psi syngas+5 g arginine/L (initial OD600 nm=0.005).
# In the repeat of the experiment, a culture was also inoculated into arginine supplemented media but without the addition of CO/CO2/H2 gas (22 psi of 100% N2 as headspace). This experiment comprised the following three conditions: PETC-MES without yeast extract+22 psi syngas (initial OD600 nm=[…]), PETC-MES without yeast extract+22 psi syngas+5 g arginine/L (initial OD600 nm=0.003), and PETC-MES without yeast extract+5 g arginine/L (initial OD600 nm=0.003).
structure (smiles),measurement,setting,value
N=C(N)NCCC[C@H](N)C(=O)O [arginine],doubling time tD in second stage after arginine depletion,[1]; 5 g arginine/L + 5 g fructose/L,~40 h
same,growth faster compared to supplementation with yeast extract,[1]; vs 1 g/L yeast extract,~3 fold
same,doubling time tD (BugLab),[2],~3 h
same,specific growth rate (BugLab),[2],0.21 h⁻¹
same,growth on arginine without CO/CO2/H2 gas,"[3]; 5 g arginine/L, N2 headspace, 48 hours",no growth observed
same,net acetate production,"[3]; 5 g arginine/L, until pause in growth at OD600≈0.8",no net acetate production was observed
same,doubling time tD,"[3]; autotrophic, 5 g/L arginine, 22 psi CO/CO2/H2, until OD600≈0.8",3.5 h
same,specific growth rate μ,"[3]; autotrophic, 5 g/L arginine, until OD600≈0.8",0.198
same,decrease of doubling time by arginine supplementation,[3],52%
same,decrease of doubling time by arginine supplementation,[3]; listed as Arginine,over 50%
